Test systems include MDA-MB-231 breast; OVCAR-3 ovarian; SW-620 colon; MCF7 breast; M14 melanoma; SNB-75 CNS; HCT-15 colon; SN12C renal; MDA-MB-435; SK-MEL-2 melanoma.
What all share (assay): inhibition of tumour cell growth, NCI panel, 48 h

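In this assay, cells in 96-well plates receive the compound at five concentrations for 48 hours. Endpoints are linearly interpolated between the surrounding concentrations. At the GI50, growth is halved. TGI is the concentration that stops growth completely.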 Some results are limits rather than exact numbers.

Take `CC(=O)N1N=C(c2ccc(Nc3nc(Nc4ccc(F)cc4)nc(Nc4ccc(F)cc4)n3)cc2)CC1c1ccc(N(C)C)cc1` (stereo not given): the GI50 is 6.54 µM in the experiment on MDA-MB-231 breast; 5.23 µM with OVCAR-3 ovarian; 3.8 µM in the experiment with SW-620 colon; 3.23 µM in the experiment on MCF7 breast; 2.79 µM with M14 melanoma; 1.51 µM in the experiment on SNB-75 CNS. Further, the GI50 in the experiment with HCT-15 colon was 2.41 µM; in the experiment with SN12C renal, 6.3 µM; in the experiment with MDA-MB-435 it was 3 µM; in the experiment on SK-MEL-2 melanoma it was 3.61 µM. In addition, the TGI came to 29.7 µM with MDA-MB-231 breast; 20.3 µM in the experiment on OVCAR-3 ovarian; 18.8 µM in the experiment on SW-620 colon; 13.7 µM with MCF7 breast; 9.79 µM in the experiment on M14 melanoma; 9.89 µM with SNB-75 CNS. For the same compound, the TGI in the experiment on HCT-15 colon was 7.43 µM; in the experiment with SN12C renal, more than 100 µM; in the experiment with MDA-MB-435 it was 11.1 µM; in the experiment with SK-MEL-2 melanoma, 16.5 µM.
`NS(=O)(=O)c1cc(C(=O)O)c(O)c2ccccc12`: the TGI in the experiment with MDA-MB-231 breast, with OVCAR-3 ovarian, with SW-620 colon, in the experiment with MCF7 breast, with M14 melanoma and in the experiment on SNB-75 CNS was more than 100 µM each time. For the same compound, the TGI in the experiment with HCT-15 colon, in the experiment with SN12C renal, with MDA-MB-435 and with SK-MEL-2 melanoma was more than 100 µM throughout.
In the case of `Cc1cc(Nc2nc(N[C@@H](C)c3ncc(F)cn3)ncc2Cl)n[nH]1`, the GI50 was 30.6 µM in the experiment on MDA-MB-231 breast; 59.1 µM in the experiment with OVCAR-3 ovarian; 22.6 µM in the experiment with SW-620 colon; 8.71 µM in the experiment on MCF7 breast; 20.7 µM with M14 melanoma; 8.85 µM in the experiment with SNB-75 CNS. The GI50 in the experiment with HCT-15 colon was 24.9 µM; with SN12C renal, 20.4 µM; in the experiment with MDA-MB-435 it was 28.1 µM; in the experiment on SK-MEL-2 melanoma it was 28.7 µM. The TGI with MDA-MB-231 breast was more than 100 µM; in the experiment on OVCAR-3 ovarian it was more than 100 µM; with SW-620 colon it was more than 100 µM; in the experiment with MCF7 breast, more than 100 µM; in the experiment with M14 melanoma, more than 100 µM; with SNB-75 CNS, 36.4 µM. Besides, the TGI in the experiment with HCT-15 colon is more than 100 µM; with SN12C renal it was more than 100 µM; in the experiment with MDA-MB-435, more than 100 µM; in the experiment on SK-MEL-2 melanoma, 92.1 µM.
In the case of `Cn1cc(-c2cnn3c(N)c(Br)c(C4CCCNC4)nc23)cn1` (stereo not given), the GI50 was 5.53 µM in the experiment on MDA-MB-231 breast; 16 µM in the experiment with OVCAR-3 ovarian; 15.7 µM in the experiment on SW-620 colon; 13.7 µM in the experiment on MCF7 breast; 0.325 µM in the experiment with M14 melanoma; 0.464 µM in the experiment with SNB-75 CNS. Also, the GI50 is 14.2 µM in the experiment with HCT-15 colon, 3.86 µM in the experiment with SN12C renal, 0.754 µM with MDA-MB-435 and 17.1 µM in the experiment with SK-MEL-2 melanoma. Further, the TGI in the experiment on MDA-MB-231 breast is 40 µM; with OVCAR-3 ovarian, more than 88.9 µM; in the experiment with SW-620 colon, more than 68.6 µM; with MCF7 breast, more than 68.6 µM; in the experiment with M14 melanoma, 16.8 µM; with SNB-75 CNS, 39.1 µM. Further, the TGI is more than 79.9 µM in the experiment with HCT-15 colon, 50.6 µM with SN12C renal, more than 57.8 µM with MDA-MB-435 and 63.7 µM in the experiment with SK-MEL-2 melanoma.
On to `CCCCCC/C=C\CCCCCCCCCC1=C(CN2CCN(C)CC2)C(=O)C=C(OC)C1=O`, for which the TGI in the experiment on MDA-MB-231 breast came out at 25.9 µM; in the experiment on OVCAR-3 ovarian, 17.3 µM; in the experiment on SW-620 colon it was 3.38 µM; with MCF7 breast, 11.6 µM; in the experiment on M14 melanoma it was 7.73 µM; in the experiment with SNB-75 CNS, 16.6 µM. Also, the TGI with HCT-15 colon was found to be 7.87 µM; with SN12C renal, 19.7 µM; with MDA-MB-435, 21.1 µM; in the experiment with SK-MEL-2 melanoma, 18.7 µM.
Regarding `CC(=O)C1=C(O)C=C2Oc3c(C(=O)/C=C/c4cc(Cl)cc(Cl)c4)c(O)c(C)c(O)c3[C@]2(C)C1=O`, the GI50 with MDA-MB-231 breast is 0.541 µM; in the experiment on OVCAR-3 ovarian, 0.417 µM; in the experiment on SW-620 colon, 0.527 µM; in the experiment with MCF7 breast, 0.458 µM; in the experiment with M14 melanoma, 0.567 µM; with SNB-75 CNS it was 1.66 µM. Besides, the GI50 was 0.539 µM in the experiment on HCT-15 colon, 0.534 µM with SN12C renal, 0.493 µM with MDA-MB-435 and 0.365 µM in the experiment with SK-MEL-2 melanoma. Moreover, the TGI in the experiment with MDA-MB-231 breast is 1.85 µM; in the experiment with OVCAR-3 ovarian, 1.23 µM; with SW-620 colon it was 2.21 µM; with MCF7 breast, 1.72 µM; in the experiment on M14 melanoma, 2.28 µM; with SNB-75 CNS, 4.06 µM. Besides, the TGI in the experiment on HCT-15 colon was determined as 2.54 µM; in the experiment with SN12C renal it was 2.45 µM; in the experiment on MDA-MB-435 it was 1.87 µM; with SK-MEL-2 melanoma, 0.924 µM.
Take `CCN(Cc1cccc(Cl)c1)c1ccc(CO)c(Cl)c1`: the GI50 was 12.9 µM in the experiment with MDA-MB-231 breast; 0.835 µM with OVCAR-3 ovarian; 1.56 µM in the experiment with SW-620 colon; 0.329 µM with MCF7 breast; 12.6 µM in the experiment with M14 melanoma; 12 µM in the experiment on SNB-75 CNS. Also, the GI50 in the experiment with HCT-15 colon is 9.93 µM; in the experiment on SN12C renal it was 11.9 µM; in the experiment with MDA-MB-435, 13.5 µM; in the experiment on SK-MEL-2 melanoma, 3.86 µM. The TGI worked out at 30.2 µM in the experiment on MDA-MB-231 breast; 5.29 µM with OVCAR-3 ovarian; 18.1 µM in the experiment on SW-620 colon; 11.4 µM in the experiment with MCF7 breast; 28.6 µM in the experiment with M14 melanoma; 30.2 µM in the experiment on SNB-75 CNS. The TGI with HCT-15 colon stood at 25.9 µM; with SN12C renal, 27.3 µM; with MDA-MB-435, 27.5 µM; in the experiment on SK-MEL-2 melanoma it was 20.8 µM.
For `C#CCN(c1ccc(C(=O)N[C@@H](CCC(=O)N[C@H](CCC(=O)O)C(=O)O)C(=O)O)cc1)C1CCc2cc3nc(CO)[nH]c(=O)c3cc21` (stereo not given in full), the GI50 in the experiment with MDA-MB-231 breast was more than 100 µM; in the experiment with OVCAR-3 ovarian, more than 100 µM; with SW-620 colon, more than 44.5 µM; in the experiment with MCF7 breast, 0.899 µM; in the experiment with M14 melanoma, 7.97 µM; in the experiment on SNB-75 CNS, more than 100 µM. Besides, the GI50 in the experiment with HCT-15 colon was more than 29.9 µM; in the experiment on SN12C renal, 6.78 µM; with MDA-MB-435, more than 74.5 µM; in the experiment with SK-MEL-2 melanoma, more than 100 µM. The TGI in the experiment with MDA-MB-231 breast, in the experiment on OVCAR-3 ovarian, with SW-620 colon, with MCF7 breast, in the experiment on M14 melanoma and with SNB-75 CNS was more than 100 µM in each case. Besides, the TGI in the experiment with HCT-15 colon, in the experiment with SN12C renal, in the experiment with MDA-MB-435 and with SK-MEL-2 melanoma was more than 100 µM each time.
Regarding `O=C1O/C(=C/c2ccccc2)C(c2ccccc2)=C1O`, the TGI in the experiment on MDA-MB-231 breast was more than 100 µM; with OVCAR-3 ovarian it was 44.1 µM; with SW-620 colon, more than 100 µM; in the experiment on MCF7 breast it was more than 100 µM; with M14 melanoma it was more than 100 µM; in the experiment on SNB-75 CNS, more than 100 µM. Also, the TGI with HCT-15 colon is more than 100 µM; with SN12C renal, more than 100 µM; with MDA-MB-435, 89.1 µM; in the experiment on SK-MEL-2 melanoma, 31.6 µM.

The values are drawn from PubChem BioAssay (NCI).
